Laboratory results: ChEMBL document CHEMBL4425164, “5-Alkyl-2-urea-Substituted Pyridines: Identification of Efficacious Glucokinase Activators with Improved Properties” (ACS Med Chem Lett, 2016)
Values after ≈ are worked out from the molar mass of the structure shown.

Tests used:
[1] = target: T1, Hexokinase-4 (Homo sapiens) (UniProt P35557); experiment: Activation of human recombinant glucokinase assessed as enzyme affinity for glucose […] as substrate in presence of NAD+ by glucose 6-phosphate dehydrogenase coupled assay
T1 sequence (whole entry): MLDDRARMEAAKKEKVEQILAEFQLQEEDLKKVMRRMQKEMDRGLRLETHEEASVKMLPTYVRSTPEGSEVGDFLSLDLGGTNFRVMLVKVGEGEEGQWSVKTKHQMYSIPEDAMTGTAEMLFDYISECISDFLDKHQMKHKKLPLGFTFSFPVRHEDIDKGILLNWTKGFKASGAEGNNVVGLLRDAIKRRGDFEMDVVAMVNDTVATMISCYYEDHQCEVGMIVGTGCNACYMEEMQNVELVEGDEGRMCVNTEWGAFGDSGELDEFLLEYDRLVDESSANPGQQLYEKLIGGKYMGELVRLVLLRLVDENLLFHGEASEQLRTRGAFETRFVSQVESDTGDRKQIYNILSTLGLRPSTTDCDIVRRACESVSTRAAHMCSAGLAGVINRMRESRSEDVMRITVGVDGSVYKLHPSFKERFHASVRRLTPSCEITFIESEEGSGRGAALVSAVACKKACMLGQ

Hexokinase-4 [2] = target: T2, Hexokinase-4 (Homo sapiens, UniProt P35557); experiment: Activation of human recombinant glucokinase using 5 mM glucose as substrate in presence of NAD+ and 4% HSA by glucose 6-phosphate dehydrogenase coupled assay
T2 sequence (P35557 whole entry): T1 sequence (whole entry)

[3] = target: T1, Hexokinase-4 (Homo sapiens); experiment: Ratio of EC50 for activation of human recombinant glucokinase in presence of 4% HSA to EC50 for activation of human recombinant glucokinase in absence of 4% HSA
Hexokinase-4 [4] = target: T2, Hexokinase-4; experiment: Activation of human recombinant glucokinase using 5 mM glucose as substrate in presence of NAD+ by glucose 6-phosphate dehydrogenase coupled assay
[5] = target: T1, Hexokinase-4 (Homo sapiens); experiment: Activation of human recombinant glucokinase assessed as Vmax ratio using 0.16 to 80 mM of glucose as substrate in presence of NAD+ by glucose 6-phosphate dehydrogenase coupled assay relative to control
[6] = Solubility of the compound in PBS at pH 7.4; format: physicochemical; settings: buffer
[7] = Fraction unbound in human plasma; format: ADME, cell-free
Mus musculus [8] = experiment: Antidiabetic activity in ob/ob mouse diabetic model assessed as decrease in blood glucose AUC at 30 mg/kg, po administered 30 mins prior to oral glucose load measured at 30 to 120 mins by OGTT; format: functional
[9] = Clearance in mouse at 1 mg/kg, iv; format: ADME, organism-based; settings: in vivo
[10] = Fraction unbound in mouse plasma; format: ADME, cell-free
[11] = Half life in mouse at 1 mg/kg, iv; format: ADME, organism-based; settings: in vivo
[12] = Oral bioavailability in rat at 2 mg/kg; format: ADME, organism-based; settings: in vivo
[13] = Intrinsic clearance in human liver microsomes; format: ADME, Microsome; settings: read-out: CLH
[14] = AUC in mouse at 5 mg/kg, po; format: ADME, organism-based; settings: in vivo
[15] = Volume of distribution at steady state in mouse at 1 mg/kg, iv; format: ADME, organism-based; settings: in vivo, read-out: Vdss
Mus musculus [16] = experiment: Antidiabetic activity in po dosed ob/ob mouse diabetic model assessed as decrease in blood glucose AUC administered 30 mins prior to oral glucose load measured at 30 to 120 mins by OGTT; format: functional, organism-based
[17] = Oral bioavailability in mouse at 5 mg/kg; format: ADME, organism-based; settings: in vivo
[18] = Half life in rat at 0.5 mg/kg, iv; format: ADME, organism-based; settings: in vivo
[19] = Volume of distribution at steady state in rat at 0.5 mg/kg, iv; format: ADME, organism-based; settings: in vivo, read-out: Vdss
[20] = Clearance in rat at 0.5 mg/kg, iv; format: ADME, organism-based; settings: in vivo
[21] = AUC in rat at 2 mg/kg, po; format: ADME, organism-based; settings: in vivo
Rattus norvegicus [22] = experiment: Antidiabetic activity in Sprague-Dawley rat assessed as decrease in blood glucose AUC at 30 mg/kg, po measured at 0.5 to 5 hrs by OGTT; format: functional
Rattus norvegicus [23] = experiment: Antidiabetic activity in Sprague-Dawley rat assessed as decrease in blood glucose AUC at 3 mg/kg, po measured at 0.5 to 5 hrs by OGTT; format: functional
Rattus norvegicus [24] = experiment: Antidiabetic activity in po dosed Sprague-Dawley rat assessed as decrease in blood glucose AUC measured at 0.5 to 5 hrs by OGTT; format: functional, organism-based
Rattus norvegicus [25] = experiment: Antidiabetic activity in Sprague-Dawley rat assessed as decrease in blood glucose AUC at 100 mg/kg, po measured at 0.5 to 5 hrs by OGTT; format: functional
[26] = Fraction unbound in rat plasma; format: ADME, cell-free
Rattus norvegicus [27] = experiment: Antidiabetic activity in Sprague-Dawley rat assessed as decrease in blood glucose AUC at 10 mg/kg, po measured at 0.5 to 5 hrs by OGTT; format: functional
[28] = Drug metabolism assessed as oxidation at THP ring site by metabolic ID study

Row | SMILES | S0.5 [1] | EC50 (Hexokinase-4 [2]) | EC50 (Hexokinase-4 [4]) | Ratio [5] | other results
1 | CNC(=O)Nc1cc(Oc2cncc(C)c2)c(CCO)cn1 | 0.6 mM | 330 nM | 130 nM | 0.9 | Ratio EC50 [3]: 1 to 3; solubility [6]: 450 µM (≈ 136 µg/mL)
2 | CNC(=O)Nc1cc(Oc2cncc(C)c2)c([C@H]2C[C@@H](O)C2)cn1 | 0.66 mM | 140 nM | 110 nM | 0.97 | Fu [7]: 25%; inhibition in vivo at 30 mg/kg (Mus musculus [8]): 32%; clearance [9]: 14.5 mL/min/kg; Fu [10]: 9.4%; half-life [11]: 72 min; bioavailability [12]: 39%; microsomal CLint [13]: < 14 µL/min/mg; AUC [14]: 3.69 µM·h; Vd [15]: 0.65 L/kg; inhibition (Mus musculus [16]): Dose-dependent effect; bioavailability [17]: 20%; solubility [6]: 332 µM (≈ 109 µg/mL); half-life [18]: 180 min; Vd [19]: 1.2 L/kg; clearance [20]: 21.7 mL/min/kg; AUC ([21]; read-out: AUC): 1.84 µM·h
3 | CNC(=O)Nc1cc(Oc2cncc(OC)c2)c([C@@H]2CCOC2)cn1 | 0.53 mM | 190 nM | 110 nM | 1.1 | 
4 | CNC(=O)Nc1cc(Oc2cncc(C)c2)c(CCCCO)cn1 | 0.54 mM | 56 nM | 37 nM | 0.87 | Ratio EC50 [3]: 1 to 3; solubility [6]: 500 µM (≈ 165 µg/mL)
5 | CNC(=O)Nc1cc(Oc2cncc(OC)c2)c(C2CCOCC2)cn1 | 0.62 mM | 150 nM | 110 nM | 1 | clearance [20]: 46.7 mL/min/kg
6 | CNC(=O)Nc1cc(Oc2cncc(OC)c2)c([C@@H]2CCCOC2)cn1 | 0.62 mM | 110 nM | 720 nM | 0.94 | 
7 | CCOCCc1cnc(NC(=O)NC)cc1Oc1cncc(C)c1 | 0.59 mM | 110 nM | 98 nM | 0.84 | Ratio EC50 [3]: 1 to 3; solubility [6]: 500 µM (≈ 165 µg/mL)
8 | CNC(=O)Nc1cc(Oc2cncc(OC)c2)c([C@@H]2CCCN(C)C2)cn1 | 0.73 mM | 2900 nM | 2300 nM | 0.78 | 
9 | CNC(=O)Nc1cc(Oc2cncc(C)c2)c(-c2ccc(OCC(C)(C)O)nc2)cn1 |  |  |  |  | half-life [18]: 138 min; Vd [19]: 2.7 L/kg; clearance [20]: 30 mL/min/kg; AUC ([21]; read-out: AUC): 2.7 µM·h
10 | CNC(=O)Nc1cc(Oc2cncc(OC)c2)c(C2=CCOCC2)cn1 | 0.82 mM | 98 nM | 66 nM | 1 | clearance [20]: 41.7 mL/min/kg
11 | CNC(=O)Nc1cc(Oc2cncc(OC)c2)c([C@H]2COCC[C@@H]2F)cn1 | 0.85 mM | 180 nM | 170 nM | 1 | clearance [20]: 26.7 mL/min/kg
12 | CNC(=O)Nc1cc(Oc2cncc(C)c2)c([C@H]2C[C@@H](C(C)(C)O)C2)cn1 | 0.68 mM | 120 nM | 51 nM | 0.54 | 
13 | CNC(=O)Nc1cc(Oc2cncc(OC)c2)c([C@H]2COCCC2(F)F)cn1 | 0.51 mM | 990 nM | 530 nM | 0.89 | 
14 | CNC(=O)Nc1cc(Oc2cncc(C)c2)c([C@H]2C[C@H](O)C2)cn1 | 0.55 mM | 110 nM | 72 nM | 0.92 | 
15 | CNC(=O)Nc1cc(Oc2cncc(C)c2)c([C@]2(O)C[C@H](O)C2)cn1 | 0.67 mM | 7500 nM | 6700 nM | 0.88 | 
16 | CNC(=O)Nc1cc(Oc2cncc(C)c2)c(CCCO)cn1 | 0.55 mM | 100 nM | 66 nM | 0.96 | Ratio EC50 [3]: 1 to 3; solubility [6]: 500 µM (≈ 158 µg/mL)
17 | CNC(=O)Nc1cc(Oc2cncc(C)c2)c([C@H]2C[C@@H](CO)C2)cn1 | 0.57 mM | 70 nM | 40 nM | 0.82 | 
18 | CNC(=O)Nc1cc(Oc2cncc(C)c2)c([C@H]2C[C@](C)(O)C2)cn1 | 0.7 mM | 300 nM | 160 nM | 0.71 | 

Second part, led by results:

Row | S0.5 [1] | EC50 (Hexokinase-4 [2]) | EC50 (Hexokinase-4 [4]) | Ratio [5] | SMILES | other results
19 | 0.62 mM |  |  | 0.87 | CNC(=O)Nc1cc(Oc2cncc(C)c2)c([C@H]2C[C@@H]2C(C)(C)O)cn1 (relative stereo) | 
20 | 0.56 mM | 820 nM | 670 nM | 0.95 | CNC(=O)Nc1cc(Oc2cncc(C)c2)c(C(C)CO)cn1 (stereo not given) | Ratio EC50 [3]: 1 to 3
21 | 0.51 mM | 97 nM | 72 nM | 1 | CNC(=O)Nc1cc(Oc2cncc(C)c2)c([C@H]2CCC[C@H](O)C2)cn1 | 
22 | 0.58 mM |  |  | 1 | CNC(=O)Nc1cc(Oc2cncc(C)c2)c([C@H]2C[C@@H]2CO)cn1 (relative stereo) | 
23 | 0.47 mM |  |  | 0.94 | CNC(=O)Nc1cc(Oc2cncc(C)c2)c([C@@H]2CC[C@@H](O)C2)cn1 | 
24 | 0.65 mM | 220 nM | 160 nM | 1.1 | CNC(=O)Nc1cc(Oc2cncc(OC)c2)c([C@H]2CCCOC2)cn1 | inhibition in vivo at 30 mg/kg (Rattus norvegicus [22]): 20%; Fu [7]: 16%; clearance [9]: 157 mL/min/kg; Fu [10]: 14%; half-life [11]: 18 min; inhibition in vivo at 3 mg/kg (Rattus norvegicus [23]): 3%; F [12]: 20%; AUC [14]: 0.13 µM·h; inhibition (Rattus norvegicus [24]): Dose-dependent effect; Vd [15]: 3.3 L/kg; inhibition in vivo at 100 mg/kg (Rattus norvegicus [25]): 40%; Fu [26]: 28%; bioavailability [17]: 5%; inhibition in vivo at 10 mg/kg (Rattus norvegicus [27]): 13%; solubility [6]: 303 µM (≈ 109 µg/mL); half-life [18]: 18 min; Vd [19]: 0.66 L/kg; CL [20]: 1.7 L/h/kg; AUC [21]: 3.64 µM·h; Drug metabolism [28]: Metabolite detected
25 | 0.69 mM | 130 nM | 400 nM | 0.99 | CNC(=O)Nc1cc(Oc2cncc(OC)c2)c(C2=CCCOC2)cn1 | clearance [20]: 38.3 mL/min/kg
26 | 0.66 mM |  |  | 0.83 | CNC(=O)Nc1cc(Oc2cncc(OC)c2)c([C@@H]2COCC[C@@H]2O)cn1 (relative stereo) | 
